This passage reports IC50 results from US8809352B2, “Sulfonamides as inhibitors of Bcl-2 family proteins for the treatments of cancer” (Novartis AG, priority 2009, dated 2014).

The target of this assay is BCL2 (Homo sapiens, UniProt P10415). The experiment in a line: Biacore SPR solution inhibition assay of BCL-2 binding to peptide derivatized sensor surfaces. To be noted: SPR competition; 56 nM BCL2 pre-equilibrated with compound one hour; biotinylated BAK, BAD and NOXA peptide surfaces; 25° C. In short, it runs like this: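 Solution-competition SPR at 25 °C in HEPES pH 7.4 buffer with 1.25 mM DTT and 3% DMSO: compounds (6-point threefold series, 16 μM to 0.004 nM) pre-equilibrated 1 h with 56 nM BCL2, then injected over captured biotinylated BAK, BAD and NOXA peptide surfaces. Binding levels relative to BCL2-only controls gave % inhibition.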
BCL2, sequence (P10415 whole entry): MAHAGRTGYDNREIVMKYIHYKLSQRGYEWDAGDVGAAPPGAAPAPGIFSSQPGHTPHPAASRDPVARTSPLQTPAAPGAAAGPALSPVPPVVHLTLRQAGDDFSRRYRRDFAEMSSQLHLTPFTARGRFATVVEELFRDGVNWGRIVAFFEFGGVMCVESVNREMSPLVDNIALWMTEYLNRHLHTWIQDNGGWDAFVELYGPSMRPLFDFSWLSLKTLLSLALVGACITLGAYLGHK
(In general: Surface plasmon resonance follows binding to a sensor surface in real time, without labels.)
Turning to `CN(C)CC[C@H](CSc1ccccc1)Nc1ccc(S(=O)(=O)Nc2nc(C(F)(F)F)nc3c2CCN(C2CCN(Cc4ccccc4-c4ccc(Cl)cc4)CC2)C3)cc1[N+](=O)[O-]` [Example 71, (R)-N-(7-(1-((4′-chlorobiphenyl-2-yl)methyl)piperidin-4-yl)-2-(trifluoromethyl)-5,6,7,8-tetrahydropyrido[3,4-d]pyrimidin-4-yl)-4-(4-(dimethylamino)-1-(phenylthio)butan-2-ylamino)-3-nitrobenzenesulfonamide], the IC50 (commonly the concentration that inhibits the measured activity by half) was determined as 0.02 µM.
For `O=S(=O)(Nc1ncnc2c1CN(C1CCN(Cc3ccccc3-c3ccc(Cl)cc3)CC1)C2)c1ccc(N[C@H](CCN2CCOCC2)CSc2ccccc2)c(S(=O)(=O)C(F)(F)F)c1` [Example 72, (R)-N-(6-(1-((4′-chlorobiphenyl-2-yl)methyl)piperidin-4-yl)-6,7-dihydro-5H-pyrrolo[3,4-d]pyrimidin-4-yl)-4-(4-morpholino-1-(phenylthio)butan-2-ylamino)-3-(trifluoromethylsulfonyl)benzenesulfonamide] the value was 0.971 µM; for `[2H]C1(N2CCc3c(ncnc3NS(=O)(=O)c3ccc(N[C@H](CCN(C)C)CSc4ccccc4)c(S(=O)(=O)C(F)(F)F)c3)C2)CCN(Cc2cc(F)ccc2-c2ccc(Cl)cc2)CC1` [Example 73, (R)-N-(7-(1-((4′-chloro-4-fluorobiphenyl-2-yl)methyl)-4-deuteropiperidin-4-yl)-5,6,7,8-tetrahydropyrido[3,4-d]pyrimidin-4-yl)-4-(4-(dimethylamino)-1-(phenylthio)butan-2-ylamino)-3-(trifluoromethylsulfonyl)benzene sulfonamide], 0.026 µM.
For `[2H]C1(N2CCc3c(nc(C(F)(F)F)nc3NS(=O)(=O)c3ccc(N[C@H](CCN4CCN(C)CC4)CSc4ccccc4F)c(S(=O)(=O)C(F)(F)F)c3)C2)CCN([C@@H](C)c2ccccc2-c2ccc(Cl)cc2)CC1` [Example 74] the value was 0.041 µM; for `[2H]C1(N2CCc3c(nc(N(C)C)nc3NS(=O)(=O)c3ccc(N[C@H](CCN4CCN(C)CC4)CSc4ccccc4F)c(S(=O)(=O)C(F)(F)F)c3)C2)CCN(CC2=C(c3ccc(Cl)cc3)CC(C)(C)CC2)CC1` [Example 75, (R)-N-(7-(1-((2-(4-chlorophenyl)-4,4-dimethylcyclohex-1-enyl)methyl)-4-deuteropiperidin-4-yl)-2-(dimethylamino)-5,6,7,8-tetrahydropyrido[3,4-d]pyrimidin-4-yl)-4-(1-(2-fluorophenylthio)-4-(4-methylpiperazin-1-yl)butan-2-ylamino)-3-(trifluoromethylsulfonyl)benzenesulfonamide], 0.066 µM.
For `[2H]C1(N2CCc3c(ncnc3NS(=O)(=O)c3ccc(N[C@H](CCN(C)C(C)C)CSc4ccccc4)c(S(=O)(=O)C(F)(F)F)c3)C2)CCN(CC2=C(c3ccc(Cl)cc3)CC(C)(C)CC2)CC1` [Example 78, N-(7-(1-[2-(4-Chloro-phenyl)-4,4-dimethyl-cyclohex-1-enylmethyl]-4-deutero-piperidin-4-yl)-5,6,7,8-tetrahydro-pyrido[3,4-d]pyrimidin-4-yl)-4-[(R)-3-(isopropyl-methyl-amino)-1-phenylsulfanylmethyl-propylamino]-3-trifluoromethanesulfonyl-benzenesulfonamide] the value was 0.041 µM; for `[2H]C1(N2CCc3c(ncnc3NS(=O)(=O)c3ccc(N[C@H](CCN)CSc4ccccc4)c(S(=O)(=O)C(F)(F)F)c3)C2)CCN(Cc2cc(F)ccc2-c2ccc(Cl)cc2)CC1` [Example 79, 4-((R)-3-Amino-1-phenylsulfanylmethyl-propylamino)-N-{7-[4-deutero-1-(4′-chloro-4-fluoro-biphenyl-2-ylmethyl)-piperidin-4-yl]-5,6,7,8-tetrahydro-pyrido[3,4-d]pyrimidin-4-yl}-3-trifluoromethanesulfonyl-benzenesulfonamide], 0.084 µM.
`[2H]C1(N2CCc3c(ncnc3NS(=O)(=O)c3ccc(N[C@H](CCN4CC5CCC(C4)O5)CSc4ccccc4)c(S(=O)(=O)C(F)(F)F)c3)C2)CCN(Cc2cc(F)ccc2-c2ccc(Cl)cc2)CC1` [Example 80, 4-((2R)-4-(8-oxa-3-azabicyclo[3.2.1]octan-3-yl)-1-(phenylthio)butan-2-ylamino)-N-(7-(1-((4′-chloro-4-fluorobiphenyl-2-yl)methyl)-4-deuteropiperidin-4-yl)-5,6,7,8-tetrahydropyrido[3,4-d]pyrimidin-4-yl)-3-(trifluoromethylsulfonyl)benzenesulfonamide]: the IC50 is 0.225 µM.
Turning to `[2H]C1(N2CCc3c(ncnc3NS(=O)(=O)c3ccc(N[C@H](CCN4CC5CCC(C4)O5)CSc4ccccc4)c(S(=O)(=O)C(F)(F)F)c3)C2)CCN(CC2=C(c3ccc(Cl)cc3)CC(C)(C)CC2)CC1` [Example 81, 4-((2R)-4-(8-oxa-3-azabicyclo[3.2.1]octan-3-yl)-1-(phenylthio)butan-2-ylamino)-N-(7-(1-((2-(4-chlorophenyl)-4,4-dimethylcyclohex-1-enyl)methyl)-4-deuteropiperidin-4-yl)-5,6,7,8-tetrahydropyrido[3,4-d]pyrimidin-4-yl)-3-(trifluoromethylsulfonyl)-benzenesulfonamide], the IC50 is 0.312 µM.
Consider `[2H]C1(N2CCc3c(ncnc3NS(=O)(=O)c3ccc(N[C@H](CCN4CCCC4)CSc4ccccc4)c(S(=O)(=O)C(F)(F)F)c3)C2)CCN(Cc2cc(F)ccc2-c2ccc(Cl)cc2)CC1` [Example 82, (R)-N-(7-(1-((4′-chloro-4 fluorobiphenyl-2-yl)methyl)-4-dueteropiperidin-4-yl)-5,6,7,8-tetrahydropyrido[3,4-d]pyrimidin-4-yl)-4-(1-(phenylthio)-4-(pyrrolidin-1-yl)butan-2-ylamino)-3-(trifluoromethylsulfonyl) benzene sulfonamide], for which the IC50 came out at 0.109 µM.
Turning to `[2H]C1(N2CCc3c(ncnc3NS(=O)(=O)c3ccc(N[C@H](CCN4CCN(C)CC4)CSc4ccccc4F)c(S(=O)(=O)C(F)(F)F)c3)C2)CCN(CC2=C(c3ccc(Cl)cc3)CC(C)(C)CC2)CC1` [Example 83], the IC50 came to 0.028 µM.
To `[2H]C1(N2CCc3c(ncnc3NS(=O)(=O)c3ccc(N[C@H](CCN(C)C(C)C)CSc4ccccc4)c(S(=O)(=O)C(F)(F)F)c3)C2)CCN(Cc2cc(F)ccc2-c2ccc(Cl)cc2)CC1` [Example 84] belongs 0.073 µM; to `[2H]C1(N2CCc3c(ncnc3NS(=O)(=O)c3ccc(N[C@H](CCN4CCCC4)CSc4ccccc4)c(S(=O)(=O)C(F)(F)F)c3)C2)CCN(CC2=C(c3ccc(Cl)cc3)CC(C)(C)CC2)CC1` [Example 85, (R)-N-(7-(1-((2-(4-chlorophenyl)-4,4-dimethylcyclohex-1-enyl)methyl)-4-deuteropiperidin-4-yl)-5,6,7,8-tetrahydropyrido[3,4-d]pyrimidin-4-yl)-4-(1-(phenylthio)-4-(pyrrolidin-1-yl)butan-2-ylamino)-3-(trifluoromethylsulfonyl)benzenesulfonamide], 0.03 µM.
For `[2H]C1(N2CCc3c(ncnc3NS(=O)(=O)c3ccc(N[C@H](CCN4CCOCC4)CSc4ccccc4)c(S(=O)(=O)C(F)(F)F)c3)C2)CCN([C@H](C)c2ccccc2-c2ccc(Cl)cc2)CC1` [Example 86, N-(7-{1-[(R)-1-(4′-Chloro-biphenyl-2-yl)-ethyl]-4-deuteropiperidin-4-yl}-5,6,7,8-tetrahydro-pyrido[3,4-d]pyrimidin-4-yl)-4-((R)-3-morpholin-4-yl-1-phenylsulfanylmethyl-propylamino)-3-trifluoromethanesulfonyl-benzenesulfonamide] the value was 0.046 µM; for `[2H]C1(N2CCc3c(ncnc3NS(=O)(=O)c3ccc(N[C@H](CCN4CCN(C)CC4)CSc4ccccc4F)c(S(=O)(=O)C(F)(F)F)c3)C2)CCN(Cc2cc(F)ccc2-c2ccc(Cl)cc2)CC1` [Example 87, (R)-N-(7-(1-((4′-chloro-4-fluorobiphenyl-2-yl)methyl)-4-deuteropiperidin-4-yl)-5,6,7,8-tetrahydropyrido[3,4-d]pyrimidin-4-yl)-4-(1-(2-fluorophenylthio)-4-(4-methylpiperazin-1-yl)butan-2-ylamino)-3-(trifluoromethylsulfonyl)benzenesulfonamide], 0.032 µM.
To `[2H]C1(N2CCc3c(ncnc3NS(=O)(=O)c3ccc(N[C@H](CCN4CCOCC4)CSc4ccccc4)c(S(=O)(=O)C(F)(F)F)c3)C2)CCN([C@@H](C)c2ccccc2-c2ccc(Cl)cc2)CC1` [Example 88] belongs 2.31 µM; to `[2H]C1(N2CCc3c(ncnc3NS(=O)(=O)c3ccc(N[C@H](CCN4CCN(CC)CC4)CSc4ccccc4)c(S(=O)(=O)C(F)(F)F)c3)C2)CCN(Cc2cc(F)ccc2-c2ccc(Cl)cc2)CC1` [Example 89, (R)-N-(7-(1-((4′-chloro-4-fluorobiphenyl-2-yl)methyl)-4-deuteropiperidin-4-yl)-5,6,7,8-tetrahydropyrido[3,4-d]pyrimidin-4-yl)-4-(4-(4-ethylpiperazin-1-yl)-1-(phenylthio)butan-2-ylamino)-3-(trifluoromethylsulfonyl)benzenesulfonamide], 0.035 µM; to `[2H]C1(N2CCc3c(ncnc3NS(=O)(=O)c3ccc(N[C@H](CCN4CCOCC4)CSc4ccccc4)c(S(=O)(=O)C(F)(F)F)c3)C2)CCN(C(C)C2=C(c3ccc(Cl)cc3)CC(C)(C)CC2)CC1` (stereo partly drawn) [Example 90, N-(7-(1-(1-(2-(4-chlorophenyl)-4,4-dimethylcyclohex-1-enyl)ethyl) 4-deuteropiperidin-4-yl)-5,6,7,8-tetrahydropyrido[3,4-d]pyrimidin-4-yl)-4-((R)-4-D-morpholino-1-(phenylthio)butan-2-ylamino)-3-(trifluoromethylsulfonyl)benzenesulfonamide], 0.149 µM.
